Here are results for 5 molecules from patent US20230271142A1, “METHODS OF PREPARING SOLID PARTICULATE MATERIALS” (MICROPORE TECHNOLOGIES LIMITED, priority 2020, published 2023).

Where “and” joins values, the source holds several entries; their conditions need not be identical. Equal entries are not always repeated.

Assay type in all cases: physicochemical
Series [1] in a line: Crystal size distribution of metformin crystals produced via LDC (Jorin ViPA). On the procedure:
0.4 g of Metformin was dissolved in 10 ml methanol in a beaker to make up the organic phase. 0.5% Tween 20 in […] was used as the aqueous phase.
The LDC was configured with a membrane with 10 μm pores, spaced 200 μm apart in a ring-shape. The stirrer speed was set at 14V (1750 rpm), and the injection rate set at 10 ml/min. The line was primed with organic phase and the aqueous phase was poured into the dispersion cell. Addition of the organic phase was started and ended when 3 ml of DP was injected.
The solution was left to stir until precipitation was visible. The crystals were analyzed via microscopy and Jorin ViPA. The results are relayed in FIG. 23 and Table 9.

A short description of series [2]: Crystal size distribution of paracetamol crystals from CXF by Jorin Visual Particle Size Analyser (ViPA). As to the method:
A solution of paracetamol in ethanol (0.3 g/ml) was prepared, alongside an aqueous phase consisting of 0.5% wt. PEG […] in DI water. The CXF was configured with a membrane with 10 μm pores, spaced 200 μm apart in a square grid. A 9.5 mm insert was used. The materials were pumped using gear pumps. The aqueous continuous phase was pumped through the annulus at the center of the membrane. The organic disperse phase was pumped through the top port of the device calibrated at a rate of […], through the membrane and into the flow of continuous phase at 200 ml/min. The solution was collected in a beaker and stirred with an overhead stirrer at 500 rpm for 10-15 minutes. The experiment was repeated 3 times. The resultant crystal suspension was examined via microscopy (see FIG. 1), and Jorin Visual Particle Size Analyser (ViPA) for crystal size and uniformity, (FIG. 2 and Table 1).

Series [3] is described as follows: Crystal size distribution of piroxicam crystals from CXF by laser diffraction (Beckmann Coulter LS-230). The conditions noted are these: 5 μm pores. On the procedure:
The CXF was configured with a membrane with 5 μm pores, spaced 45 μm apart in a square grid. A 9.5 mm insert was used. The materials were pumped using gear pumps. The aqueous continuous phase was pumped at […] through the annulus at the center of the membrane. The organic disperse phase was pumped at 17 mL/min through the top port of the device, through the membrane and into the flow of continuous phase. The solution was collected in a 250 ml beaker and stirred with an overhead stirrer at 500 rpm for 10-15 minutes. The crystals were analyzed via microscopy and Laser Diffraction (Beckmann Coulter LS-230). The results are relayed in FIGS. 4 and 5 and Table 2.

The nature of series [4]: Effect of membrane pore diameter on size distribution of telmisartan particles (CXF, laser diffraction). The conditions noted are these: for D10 / D50 / D90 / Volume Mean: CXF, DP 58 mL/min. On the procedure: A solution of telmisartan in DMSO (0.06 g/ml) was prepared as the organic phase. The aqueous phase was composed of distilled water. The CXF was configured with membranes of different pore sizes that included 5, 10, 20 and 40 μm pores, spaced 200 μm apart in a square grid. A 9.5 mm insert was used. The materials were pumped using gear pumps. The aqueous continuous phase was pumped through the annulus at the center of the membrane at a rate of 464 ml/min. The organic disperse phase was pumped through the top port of the device at a rate of 58 mL/min, through the membrane pores and into the flow of continuous phase. The solution was collected in a beaker and stirred with an overhead stirrer at 500 rpm for 5-10 minutes.

Series [5] can be described thus: Particle size distribution of amorphous telmisartan produced via LDC and CXF (laser diffraction). Particulars: three runs; for D10 / D50 / D90 / Volume Mean D[4,3]: 10 μm pores, ± standard deviation; for StDev: of the size distribution. As to the method: Reproducibility of the Production of Amorphous Telmisartan and Translation from Stirred Cell LDC to Continuous Crossflow CXF Devices A solution of telmisartan in DMSO (0.06 g/ml) was prepared for use as the organic phase. An aqueous phase of 50 ml of DI water was prepared. The LDC was configured with a membrane with 10 μm pores, spaced 200 μm apart in a square grid, in a ring sat underneath a stirrer paddle. […] The stirrer was set to […] (1750 rpm). […] The LDC runs were repeated three times. Additionally, a solution of telmisartan in DMSO (0.06 g/ml) was prepared as an organic phase. An aqueous phase was composed of distilled water. A CXF was configured with a membrane with 10 μm pores, spaced 200 μm apart in a square grid. A 9.5 mm insert was used. The materials were pumped using gear pumps. The aqueous continuous phase was pumped through the annulus at the center of the membrane at a rate of 464 ml/min. The organic disperse phase was pumped through the top port of the device at a rate of 58 mL/min, through the membrane pores and into the flow of continuous phase. This preserved the 8:1 CP:DP ratio used in the LDC experiments and generated a similar shear profile. The solution was collected in a beaker and stirred with an overhead stirrer at 500 rpm for 5-10 minutes. The CXF runs were repeated three times. The particle size distributions of material produced on the LDC are shown in Table 6, with errors given as the standard deviations, alongside those for the CXF runs.

Series [6] can be described thus: Effect of disperse phase flow rate on size distribution of telmisartan particles (CXF, laser diffraction). The conditions noted are these: for D10 / D50 / D90 / Volume Mean: CXF, 10 μm pores. On the procedure: A solution of telmisartan in DMSO (0.06 g/ml) was prepared as the organic phase. The aqueous phase was composed of distilled water. The CXF was configured with a membrane with 10 μm pores, spaced 200 μm apart in a square grid. A 9.5 mm insert was used. The materials were pumped using gear pumps. The aqueous continuous phase was pumped through the annulus at the center of the membrane at […]. The organic disperse phase was pumped through the top port of the device at rates of […], through the membrane and into the flow of continuous phase that was calibrated. The solution was collected in a beaker and stirred with an overhead stirrer at 500 rpm for 5-10 minutes.

A short description of series [7]: Effect of aqueous phase surfactant on carbamazepine crystals produced via LDC (Jorin ViPA). Particulars: for D10 / D50 / D90 / Volume Mean: LDC. As to the method: 0.4 g of Carbamazepine was dissolved in 10 ml methanol in a beaker at 45° C. to make up the organic phase. In one instance, 0.5% Pluronic PEG P123 (Mn˜5,800) in DI water was used as the aqueous phase. In another instance, 0.5% HPMC (Mn˜10,000) in DI water was used as the aqueous phase.
The LDC was configured with a membrane with 10 μm pores, spaced 200 μm apart in a ring formation. The stirrer speed was set at 14V (1750 rpm), and the organic phase injection rate set at 10 ml/min. The line was primed with organic phase and the aqueous was poured into the stirred cell. The organic phase addition was started and ended when 3 ml of DP was injected.
The solution was left to stir until precipitation was visible. The crystals were analyzed via microscopy and Jorin ViPA. The results are relayed in FIG. 18 and Table 7.

Setting [8] is: 10 μm pores, methanol solution into 0.5% Tween 20 in acetonitrile.
[9] abbreviates: Average ± Standard Deviation of 3 runs.
Where [10] appears, read: CXF, 10 μm pores, Average ± Standard Deviation of 3 runs.
[11] abbreviates: volume distribution, CXF, 10 μm pores, ethanol solution into 0.5% PEG P123 water, single runs 1-3.
Where [12] appears, read: volume distribution, ethanol solution into 0.5% HPMC water.
[13] abbreviates: 10 μm pore membrane (average of three).
Setting [14] is: disperse phase 58 mL/min (average of three).
The mark [15] stands for this setting: aqueous phase 0.5% HPMC (form III).
The mark [16] stands for this setting: aqueous phase 0.5% P123 (form II).

As to `CN(C)C(=N)N=C(N)N` [Metformin], the Span in series [1] worked out at 1.09. Also, in series [1] (10 μm pores), the “Size Mean” value is listed as 12.430 μm and the “Volume Mean” value is 53.10 μm. Also, in series [1] (setting [8]), the D10 is recorded as 25.63 μm, the D50 is given as 50.80 μm and the D90 is given as 81.03 μm.

For `CC(=O)Nc1ccc(O)cc1` [Paracetamol, paracetamol], in series [2] (setting [9]), the CV % is 39.07 ± 1.660% and the Span was determined as 1.100 ± 0.066. Further, in series [2] (CXF, 10 μm pores, ethanol solution into 0.5% PEG P123 water, single runs 1-3), the “Volume Mean D[4,3]” value is 45.37 μm and 44.28 μm and 41.17 μm. Further, in series [2] (setting [10]), the D10 was determined as 23.81 ± 0.894 μm, the D50 came to 40.42 ± 0.573 μm, the D90 is reported as 68.31 ± 3.604 μm and the “Volume Mean D[4,3]” value is 43.61 ± 1.258 μm. In series [2] (CXF, 10 μm pores, single runs 1-3), the Span is 1.232 and 1.044 and 1.024. In series [2] (of the size distribution, Average ± Standard Deviation of 3 runs), this molecule displayed a StDev of 17.05 ± 1.021 μm. Also, in series [2] (setting [11]), the D10 was 24.12 μm and 25.18 μm and 22.13 μm; the D50 is 41.15 μm and 40.82 μm and 39.29 μm; the D90 was 74.81 μm and 67.77 μm and 62.36 μm.

In series [3], `CN1C(C(=O)Nc2ccccn2)=C(O)c2ccccc2S1(=O)=O` [Piroxicam] returned a Span of 1.78. The molecule further showed a Mean in series [3] (volume distribution) of 6.978 μm. In series [3] (setting [12]), this molecule yielded a D10 of 1.240 μm, a D50 of 6.562 μm and a D90 of 12.96 μm.

In the case of `CCCc1nc2c(C)cc(-c3nc4ccccc4n3C)cc2n1Cc1ccc(-c2ccccc2C(=O)O)cc1` [Telmisartan, telmisartan], in series [4] (5 μm pore membrane), the C.V is listed as 53.31%, the D10 was 6.506 μm, the D50 turned out to be 13.01 μm and the D90 was determined as 22.83 μm. For the same molecule, the “Volume Mean” value in series [4] (5 μm pore membrane) turned out to be 14.31 μm. In series [4] (setting [13]), the C.V is 50.06%, the D10 was determined as 7.359 μm, the D50 was found to be 15.66 μm and the D90 is listed as 28.00 μm. For the same molecule, in series [4] (setting [13]), the “Volume Mean” value is 17.11 μm. In series [4] (20 μm pore membrane), this molecule yielded a C.V of 57.77%, a D10 of 6.555 μm, a D50 of 18.72 μm and a D90 of 37.68 μm. In addition, in series [4] (20 μm pore membrane), the “Volume Mean” value is reported as 20.60 μm. In series [4] (40 μm pore membrane), this molecule registered a C.V of 56.41%, a D10 of 8.451 μm, a D50 of 23.16 μm and a D90 of 45.99 μm. Moreover, the “Volume Mean” value in series [4] (40 μm pore membrane) was 25.42 μm. Further, in series [5] (CXF), the D10 came to 7.359 ± 1.096 μm, the D50 was determined as 15.66 ± 1.558 μm, the D90 came to 28.0 ± 2.091 μm and the “Volume Mean D[4,3]” value is on record as 17.11 ± 1.538 μm. In series [5] (CXF), this molecule displayed a CV of 50.57 ± 3.09%, a Span of 1.389 ± 0.070 and a StDev of 8.565 ± 0.275 μm. Moreover, in series [5] (LDC), the D10 is recorded as 6.952 ± 0.357 μm, the D50 is listed as 14.32 ± 0.693 μm, the D90 was 26.43 ± 1.268 μm and the “Volume Mean D[4,3]” value is on record as 15.79 ± 0.755 μm. Also, in series [5] (LDC), the CV is reported as 51.07 ± 0.937%, the Span stood at 1.360 ± 0.028 and the StDev is reported as 8.066 ± 0.430 μm. In addition, in series [6] (disperse phase 15 mL/min), the D10 is 4.653 μm, the D50 is 10.11 μm, the D90 is 15.76 μm and the “Volume Mean” value came out at 10.17 μm. The same molecule came in with a Span in series [6] (disperse phase 15 mL/min) of 1.099. In series [6] (disperse phase 29 mL/min), the D10 is given as 4.981 μm, the D50 is on record as 10.09 μm, the D90 was found to be 18.9 μm and the “Volume Mean” value is recorded as 11.79 μm. Moreover, the Span in series [6] (disperse phase 29 mL/min) amounted to 1.379. Besides, in series [6] (setting [14]), the D10 stood at 7.359 μm, the D50 came to 15.66 μm, the D90 was found to be 28.00 μm and the “Volume Mean” value is 17.11 μm. The molecule also returned a Span in series [6] (setting [14]) of 1.318.

`NC(=O)N1c2ccccc2C=Cc2ccccc21` [Carbamazepine]: in series [7] (0.5% HPMC), the Span is 1.10. This molecule yielded a Span in series [7] (0.5% P123) of 0.81. In series [7] (setting [15]), this molecule showed a D10 of 28.90 μm, a D50 of 44.92 μm, a D90 of 78.16 μm and a Volume Mean of 48.84 μm. In series [7] (setting [16]), this molecule came in with a D10 of 29.92 μm, a D50 of 42.37 μm, a D90 of 64.09 μm and a Volume Mean of 45.79 μm.
